From patent US20160046618A1, “Cyclopropyl Fused Thiazin-2-Amine Compounds as Beta-Secretase Inhibitors and Methods of Use” (AMGEN INC., priority 2014, published 2016) come the findings set out here.

Test [1] has as its system Aβ40 in conditioned medium of cells stably expressing Amyloid Precursor Protein (APP). Nature of the test: In vitro BACE-1 cell-based assay (Aβ40 sandwich ELISA). Conditions: read-out: IC50 IP (μM) BACE1 cell. In outline:
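APP-expressing cells treated 24 h at 37 °C with compound in 10-point dose response (top 100 μM or 10 μM, 0.1% DMSO final). Secreted Aβ40 in conditioned medium quantified by sandwich ELISA (pAb40 capture, biotinylated 6E10 detection, time-resolved europium fluorescence); IC50 from percent inhibition versus concentration.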
(In general: In an ELISA, binding on a coated surface is turned into a signal by an enzyme label.)

For another test, the target named is human recombinant BACE2 (Homo sapiens (Human), UniProt Q9Y5Z0). Nature of the test: In vitro enzymatic BACE2 FRET assay. Type of test: biochemical. Conditions: read-out: IC50 IP (μM) BACE2 enzyme. The procedure, abridged: (§1)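 Ni-NTA-purified recombinant protease incubated with compound; reaction started with 50 nM FRET peptide substrate (fluorophore/quencher flanking the BACE cleavage site) and run 1 h. Stopped with Tris buffer raising pH to neutral; fluorescence read at ex 488/em 590 nm.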

In another test the target is Recombinant Cat D (Homo sapiens (Human), UniProt P07339). Nature of the test: In vitro enzymatic Cathepsin D (Cat D) FRET assay. Type of test: biochemical. Conditions: read-out: IC50 IP (μM) CatD. The procedure, abridged: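 Fluorescence at 500 nm excitation and 580 nm emission reports cleavage of a quenched fluorophore–quencher peptide (20 nM) by CHO-expressed Cat D. Reactions ran one hour in 0.05 M citrate pH 3.5, 5 mM CHAPS, 10% DMSO final before a Tris stop raised pH to neutrality.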

A further test concerns the target human recombinant BACE1 (Homo sapiens (Human), UniProt P56817). The test is described as follows: In vitro enzymatic BACE1 FRET assay. Type of test: biochemical. The settings on record: read-out: IC50 IP (μM) BACE1 enzyme. In outline: as §1

Read-outs that look alike come from different tables or passages of the source.

human recombinant BACE2, sequence (Q9Y5Z0 63-518): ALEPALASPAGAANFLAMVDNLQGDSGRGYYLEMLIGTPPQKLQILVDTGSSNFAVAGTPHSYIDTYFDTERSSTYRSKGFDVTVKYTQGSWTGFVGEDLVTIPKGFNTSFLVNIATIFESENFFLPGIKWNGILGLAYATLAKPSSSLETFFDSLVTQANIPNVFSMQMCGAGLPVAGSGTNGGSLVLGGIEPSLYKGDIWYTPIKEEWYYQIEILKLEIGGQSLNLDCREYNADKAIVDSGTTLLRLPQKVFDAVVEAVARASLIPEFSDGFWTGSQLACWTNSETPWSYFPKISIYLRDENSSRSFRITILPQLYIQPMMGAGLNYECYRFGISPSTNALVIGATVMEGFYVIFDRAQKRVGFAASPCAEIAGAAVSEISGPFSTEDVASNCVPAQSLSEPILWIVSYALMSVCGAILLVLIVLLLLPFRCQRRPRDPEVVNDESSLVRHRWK
Recombinant Cat D, sequence (P07339 65-412): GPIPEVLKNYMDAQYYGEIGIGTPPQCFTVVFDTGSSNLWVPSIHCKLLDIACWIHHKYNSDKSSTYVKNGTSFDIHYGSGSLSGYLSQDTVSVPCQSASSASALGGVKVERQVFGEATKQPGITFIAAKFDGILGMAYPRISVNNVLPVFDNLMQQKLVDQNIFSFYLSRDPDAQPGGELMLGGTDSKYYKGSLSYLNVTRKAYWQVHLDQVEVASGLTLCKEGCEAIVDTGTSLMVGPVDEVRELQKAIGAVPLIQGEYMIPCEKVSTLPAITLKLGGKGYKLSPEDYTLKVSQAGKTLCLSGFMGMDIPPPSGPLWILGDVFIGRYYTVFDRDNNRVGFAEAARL
human recombinant BACE1, sequence (P56817 46-501): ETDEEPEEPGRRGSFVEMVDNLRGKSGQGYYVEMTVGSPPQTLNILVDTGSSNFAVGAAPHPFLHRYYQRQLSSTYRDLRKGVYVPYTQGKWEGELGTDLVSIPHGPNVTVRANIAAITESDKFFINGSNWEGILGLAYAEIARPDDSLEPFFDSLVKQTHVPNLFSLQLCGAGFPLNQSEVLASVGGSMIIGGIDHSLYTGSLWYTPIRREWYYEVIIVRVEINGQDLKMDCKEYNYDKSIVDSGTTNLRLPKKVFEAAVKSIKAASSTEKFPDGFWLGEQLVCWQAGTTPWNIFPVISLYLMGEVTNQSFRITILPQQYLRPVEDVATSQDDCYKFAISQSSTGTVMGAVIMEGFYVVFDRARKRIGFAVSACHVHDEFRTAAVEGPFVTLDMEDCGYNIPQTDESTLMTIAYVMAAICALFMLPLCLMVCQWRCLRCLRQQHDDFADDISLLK

As usually defined, the IC50 is the concentration that gives 50% inhibition. Take `NC1=N[C@](CF)(c2cc(NC(=O)c3ccc(Cl)cn3)ccc2F)[C@@H]2C[C@]2(COCC(F)(F)F)S1` [Example 954, N-(3-((1S,5S,6S)-3-amino-5-(fluoromethyl)-1-((2,2,2-trifluoroethoxy)methyl)-2-thia-4-azabicyclo[4.1.0]hept-3-en-5-yl)-4-fluorophenyl)-5-chloro-2-pyridinecarboxamide]: the IC50 in test [1] stood at 0.0144 µM; on human recombinant BACE2, 0.00382 µM; at Recombinant Cat D it was 715 µM; at human recombinant BACE1, 0.00579 µM.
In the case of `COC[C@]12C[C@H]1[C@@](C)(c1cc(Nc3nccc4cc(OC)cnc34)cc(F)c1F)N=C(N)S2` [Example 629, N-(3-((1S,5S,6S)-3-amino-1-(methoxymethyl)-5-methyl-2-thia-4-azabicyclo[4.1.0]hept-3-en-5-yl)-4,5-difluorophenyl)-3-methoxy-1,7-naphthyridin-8-amine], the IC50 in test [1] stood at 0.0205 µM; on human recombinant BACE2 it was 0.0582 µM; on Recombinant Cat D, 2880 µM; at human recombinant BACE1, 0.0365 µM.
With `COc1cnc2c(Nc3cc(F)c(F)c([C@@]4(C)N=C(N)S[C@@]5(CO)C[C@H]54)c3)nccc2c1` [Example 89, ((1S,5S,6S)-3-amino-5-(2,3-difluoro-5-((3-methoxy-1,7-naphthyridin-8-yl)amino)phenyl)-5-methyl-2-thia-4-azabicyclo[4.1.0]hept-3-en-1-yl)methanol], the IC50 was 0.0198 µM in test [1] (BACE1 cell-based assay), 0.0364 µM at human recombinant BACE2 (BACE2 FRET enzyme assay), greater than 400 µM at Recombinant Cat D (Cathepsin D FRET enzyme assay) and 0.0228 µM at human recombinant BACE1 (BACE1 FRET enzyme assay).
As to `COC[C@]12C[C@H]1[C@@](C)(c1cc(NC(=O)c3cnc(OCc4noc(C)n4)cn3)cc(F)c1F)N=C(N)S2` [Example 1013, N-(3-((1S,5S,6S)-3-amino-1-(methoxymethyl)-5-methyl-2-thia-4-azabicyclo[4.1.0]hept-3-en-5-yl)-4,5-difluorophenyl)-5-((5-methyl-1,2,4-oxadiazol-3-yl)methoxy)-2-pyrazinecarboxamide], the IC50 stood at 0.00144 µM in test [1], 0.0541 µM at human recombinant BACE2, 959 µM on Recombinant Cat D and 0.00139 µM on human recombinant BACE1.
As for `COC(=O)[C@]12C[C@H]1[C@@](C)(c1cc(NC(=O)c3ccc(Cl)cn3)cnc1F)N=C(N)S2` [Example 99, (1S,5S,6S)-methyl 3-amino-5-(5-(5-chloropicolinamido)-2-fluoropyridin-3-yl)-5-methyl-2-thia-4-azabicyclo[4.1.0]hept-3-ene-1-carboxylate], the IC50 in test [1] (BACE1 cell-based assay) worked out at 0.0659 µM; on human recombinant BACE2 (BACE2 FRET enzyme assay) it was 0.00824 µM; on Recombinant Cat D (Cathepsin D FRET enzyme assay) it was 1130 µM; at human recombinant BACE1 (BACE1 FRET enzyme assay) it was 0.00659 µM.
Turning to `Cc1cc(OCc2ncco2)cnc1C(=O)Nc1ccc(F)c([C@@]2(C)N=C(N)S[C@@]3(CF)C[C@H]32)c1` [Example 652, N-(3-((1S,5S,6S)-3-amino-1-(fluoromethyl)-5-methyl-2-thia-4-azabicyclo[4.1.0]hept-3-en-5-yl)-4-fluorophenyl)-3-methyl-5-(1,3-oxazol-2-ylmethoxy)-2-pyridinecarboxamide], the IC50 in test [1] was 0.0256 µM; on human recombinant BACE2, 0.142 µM; at Recombinant Cat D, greater than 400 µM; on human recombinant BACE1, 0.00756 µM.
In the case of `COC[C@]12C[C@H]1[C@@](C)(c1cc(NC(=O)c3cnc(OCc4nc(C)no4)cn3)cc(C)c1F)N=C(N)S2` [Example 1044, N-(3-((1S,5S,6S)-3-amino-1-(methoxymethyl)-5-methyl-2-thia-4-azabicyclo[4.1.0]hept-3-en-5-yl)-4-fluoro-5-methylphenyl)-5-((3-methyl-1,2,4-oxadiazol-5-yl)methoxy)-2-pyrazinecarboxamide], the IC50 in test [1] was found to be 0.017 µM; on human recombinant BACE2 it was 0.0987 µM; at Recombinant Cat D it was 291 µM; on human recombinant BACE1, 0.001 µM.
Turning to `C#CCOc1cnc(C(=O)Nc2cc(F)c(F)c([C@@]3(C)N=C(N)S[C@@]4(CF)C[C@H]43)c2)c(Cl)c1` [Example 691, N-(3-((1S,5S,6S)-3-amino-1-(fluoromethyl)-5-methyl-2-thia-4-azabicyclo[4.1.0]hept-3-en-5-yl)-4,5-difluorophenyl)-3-chloro-5-(2-propyn-1-yloxy)-2-pyridinecarboxamide], the IC50 in test [1] came to 0.00563 µM; at human recombinant BACE2, 0.0231 µM; at Recombinant Cat D it was 728 µM; on human recombinant BACE1, 0.000673 µM.
The corresponding values for `COC[C@]12C[C@H]1[C@@](C)(c1cc(NC(=O)c3cnc(OCC4(C)COC4)cn3)cc(F)c1F)N=C(N)S2` [Example 1062, N-(3-((1S,5S,6S)-3-amino-1-(methoxymethyl)-5-methyl-2-thia-4-azabicyclo[4.1.0]hept-3-en-5-yl)-4,5-difluorophenyl)-5-((3-methyl-3-oxetanyl)methoxy)-2-pyrazinecarboxamide] are 0.022 µM, 0.658 µM, greater than 400 µM and greater than 16 µM.
On to `C#CCOc1cnc(C(=O)Nc2ccc(F)c([C@@]3(C)N=C(N)S[C@@]4(C(=O)NC)C[C@H]43)c2)cn1` [Example 987, (1S,5S,6S)-3-amino-5-(2-fluoro-5-(((5-(2-propyn-1-yloxy)-2-pyrazinyl)carbonyl)amino)phenyl)-N,5-dimethyl-2-thia-4-azabicyclo[4.1.0]hept-3-ene-1-carboxamide], for which the IC50 in test [1] was 0.000229 µM; at human recombinant BACE2, 0.0079 µM; on Recombinant Cat D it was 49.9 µM; at human recombinant BACE1 it was 0.00014 µM.
As for `COCCOc1cnc2c(Nc3ccc(F)c([C@@]4(CF)N=C(N)S[C@@]5(CF)C[C@H]54)c3)nccc2n1` [Example 635, N-(3-((1S,5S,6S)-3-amino-1,5-bis(fluoromethyl)-2-thia-4-azabicyclo[4.1.0]hept-3-en-5-yl)-4-fluorophenyl)-2-(2-methoxyethoxy)pyrido[3,4-b]pyrazin-5-amine], the IC50 in test [1] was 0.0208 µM; on human recombinant BACE2, 0.192 µM; on Recombinant Cat D, greater than 400 µM; on human recombinant BACE1, 0.00832 µM.
For `CNC(=O)[C@]12C[C@H]1[C@@](C)(c1cc(NC(=O)c3cnc(OCC(F)(F)F)cn3)cc(F)c1F)N=C(N)S2` [Example 701, (1S,5S,6S)-3-amino-5-(2,3-difluoro-5-(((5-(2,2,2-trifluoroethoxy)-2-pyrazinyl)carbonyl)amino)phenyl)-N,5-dimethyl-2-thia-4-azabicyclo[4.1.0]hept-3-ene-1-carboxamide], the IC50 turned out to be 0.00309 µM in test [1], 0.0782 µM at human recombinant BACE2, 587 µM at Recombinant Cat D and 0.000943 µM at human recombinant BACE1.
As for `C[C@]1(c2cc(Nc3ncnc4cc(F)cnc34)cc(F)c2F)N=C(N)S[C@H]2C[C@H]21` [Example 636, (1S,5S,6S)-5-(2,3-difluoro-5-((7-fluoropyrido[3,2-d]pyrimidin-4-yl)amino)phenyl)-5-methyl-2-thia-4-azabicyclo[4.1.0]hept-3-en-3-amine], the IC50 in test [1] was determined as 0.411 µM; at human recombinant BACE2, 0.0298 µM; on Recombinant Cat D it was 996 µM; at human recombinant BACE1, 0.0918 µM.
On to `COC[C@]12C[C@H]1[C@@](C)(c1cc(Nc3nccc4cc(OCc5ncc(Cl)s5)cnc34)cc(F)c1F)N=C(N)S2` [Example 735, N-(3-((1S,5S,6S)-3-amino-1-(methoxymethyl)-5-methyl-2-thia-4-azabicyclo[4.1.0]hept-3-en-5-yl)-4,5-difluorophenyl)-3-((5-chloro-1,3-thiazol-2-yl)methoxy)-1,7-naphthyridin-8-amine], for which the IC50 in test [1] amounted to 1.76 µM; at human recombinant BACE2 it was 0.978 µM; on Recombinant Cat D, 1650 µM; at human recombinant BACE1, 0.0412 µM.
